Test results as given in paper PMC6511062, “Preclinical candidate for the treatment of visceral leishmaniasis that acts through proteasome inhibition” (Proceedings of the National Academy of Sciences of the …, 2019).
In brackets after ≈: the same amount, converted by molar mass. Entries after “also recorded” stand apart in the source; their conditions may differ. Like-named read-outs stand apart in the source and are kept apart here.

What was measured:
[1] = system: Trypanosoma cruzi; assay: T. cruzi phenotypic screening assay; type: cell-based; settings: phenotypic screen, read-out: EC50 against T. cruzi
Experimental: (§1) T. cruzi4, Leishmania donovani axenic amastigote, cidal axenic amastigote and intra-
(§2) macrophage drug sensitivity assays were conducted as previously described5,6. […]
(§3) 5. Intrinsic clearance (CLint) […]
(§4) 6. Pharmacokinetic studies. […]

[2] = system: L. donovani intramacrophage amastigotes; assay: L. donovani intramacrophage assay (amastigotes in differentiated THP-1 cells); type: cell-based, Leishmania donovani; settings: Leishmania donovani
Experimental: as §1, §2, §3, §4

[3] = system: THP-1 cells; assay: Mammalian cell growth inhibition (THP-1); type: cell-based; settings: Homo sapiens
Text: We hypothesized that, in view of their structural similarity, 1 and 2 probably shared the same mechanism of action.

[4] = Intrinsic clearance in mouse liver microsomes; type: in vitro ADME
Experimental: page 13: 4. Parasite assays T. cruzi4, Leishmania donovani axenic amastigote, cidal axenic amastigote and intra- macrophage drug sensitivity assays were conducted as previously described5,6. a. […] Instead of a single readout at 72 h, multiple identical plates were used and read at different time points (24, 48, 72 h). Rate of kill curves showing the luminescence signal at each time point for each concentration were plotted. 5. […] The rate of intrinsic clearance (CLint) of each test compound was then calculated using the following calculation: CLint(mL/min/g liver) = k x V x Microsomal protein yield Where V (mL/mg protein) is the incubation volume/mg protein added and microsomal protein yield is taken as 52.5 mg protein/g liver. Verapamil (0.5 μM) was used as a positive control to confirm acceptable assay performance. 6. Pharmacokinetic studies. a. Mouse and dog PK Mouse pharmacokinetic studies were conducted in male CD-1 mice and male beagle dogs. 3 animals per group were used for each study performed. A dose of 3 mg/kg was administered intravenously, in a bolus form to mice and infused over a 30 min period to dogs. For all the intravenous studies compound were dissolved in 5% DMSO/20% kleptose in saline. A dose of 10 mg/kg was orally administered by gavage to the two species in a suspension of 1% methylcellulose to investigate oral pharmacokinetics. S13

[5] = CAD (charged aerosol detector) solubility
[6] = system: Salmonella typhimurium TA1535, TA1537, TA98, TA100 and Escherichia coli WP2uvrA(pKM101); assay: Bacterial mutation screening assay (Ames test), overall outcome; type: cell-based; settings: presence and absence of S9-mix
Experimental: i. Bacterial Mutation (Ames) Assay
Compound 6 was tested in a bacterial mutation screening assay (Ames test) with Salmonella typhimurium TA1535, TA1537, TA98, TA100 and Escherichia coli WP2uvrA(pKM101) in the presence and absence of an exogenous mammalian oxidative metabolism system (S9-mix). The maximum concentration tested and […]
Compound 6a was tested in a bacterial mutation screening assay (Ames test) with […]
Compound 7a was tested in a bacterial mutation screening assay (Ames test) with […]
The bacterial mutation screening assay was a plate incorporation test carried out as previously described15 and according to current methodology. […]

[7] = physchem
[8] = Solubility in fasted simulated intestinal fluid (FaSSIF); settings: fassif
[9] = system: L. donovani promastigotes; assay: microbe, parasite or virus in culture; type: cell-based, Leishmania donovani; settings: Leishmania donovani
Experimental: 9. Mode of action studies a. Cell lines and culture conditions […]
c. Generation of drug-resistant parasites […]
donovani in the continuous presence of this compound. Starting at a sub-lethal […]
After a total of 120 days in
Genomic DNA was harvested from three independently generated L. donovani resistant clones and an age match control, as previously described27. PCR was performed using Platinum PCR Supermix (Invitrogen), as per manufacturer’s […]
generated using primers SubunitB4FW and SubunitB4RV, then sequenced using primer SubunitB4FW (Table S6). To sequence the β5 subunit (LdBPK_361730.1), an […]
sequenced using primer SubunitB5FW. PCR amplification and DNA sequencing were performed in triplicate for each independently generated cell line. The Leishmania donovani BPK282A1 sequences of the two subunits were identified in TriTrypDB and […]
e. Generation of overexpression constructs and LdBOB transgenic cell lines The genes encoding the mutated versions of the β4 (LdBPK_360340.1) and the β5 […]
parasites, were synthesised (GeneArt, Thermo Fischer Scientific). The synthetic genes, flanked by BamHI sites were cloned into the equivalent site of pIR1-SAT. The accuracy of all assembled constructs was verified by sequencing.
Mid-log-phase L. donovani promastigotes (LdBOB) were transfected with overexpression constructs using the Human T-Cell Nucleofector kit and the Amaxa Nucleofector electroporator (program V-033). Following transfection, cells were […]
to appropriate drug selection (100 µg/mL nourseothricin). Cloned cell lines were […]
selection for one passage prior to experiments. […]

[10] = system: chymotrypsin-like activity of the L. donovani proteasome; assay: biochemical; set-up: species or system Leishmania donovani; settings: lysates from RES II and WT parasites
Experimental: An in vitro assay was developed that enabled the chymotrypsin-like activity and additional proteolytic activities associated with the proteasome to be directly monitored within proteasome-enriched parasite cell lysates. Likewise, human proteasome from two sources (i.e., commercially pure 26S and enriched proteasome fractions from THP-1 lysates) was tested using the same biochemical assays.
Proteasome enrichment by ultracentrifugation
The protocol described by Kisselev et al.34 was adapted to enrich the proteasomes present in L. donovani and THP1 crude extracts. L. donovani or THP1 cells were resuspended in sucrose buffer (50 mM Tris buffer pH 7.5, 5 mM Magnesium chloride, 1 mM EDTA, 50 mM NaCl, 250 mM sucrose, 2 mM ATP, 1 mM DTT) and lysed by nitrogen cavitation for 15 min (110 bars of 1500 psi). Lysates were centrifuged at 20,000g for 30 min at 4 °C and supernatants containing soluble protein were subjected to an ultracentrifugation step at 300,000g for 2h at 4 °C. The resulting proteasome-containing pellets were resuspended in sucrose buffer and left on ice for 30 min to complete solubilization. Samples were centrifuged for 10 min at 20,000 g to remove insoluble material. Proteins contained in supernatant (proteasome enriched fraction) were measured by Bradford.
Proteasome activity assays
Compounds were dispensed into black 384-well assay plates (Greiner) by acoustic dispensing (LabCyte ECHO). For potency determinations, eleven-point, one in three dilution curves were generated, with a top concentration of 100 µM. Three proteasome activities were measured using a commercially available indirect enzyme-based luminescent assay kit (Promega) with Suc-LLVY-aminoluciferin, Z-LRR-aminoluciferin and Z-nLPnLD-aminoluciferin used as substrates for chymotrypsin-like, trypsin-like and caspase-like activities, respectively. In addition to proteasome samples: L. donovani and THP1-enriched proteasomes, commercially available human purified 26S proteasome (Boston Biochem) was also assessed.

[11] = system: L. donovani proteasome β subunits; assay: Activity-based probe (UbiQ-018) labelling of L. donovani proteasome; type: binding, Leishmania donovani; settings: 100 µM
Experimental: m. Activity-Based Probe Labelling of THP1 and L. donovani proteasome
Proteasome enriched fractions from THP1 (20 µg), L. donovani (10 µg) and L. donovani […]
µM for 1 h. Proteasome enriched fractions were also incubated with DMSO as control.
For all proteasome labelling experiments, the active-site probe Me4BodipyFL-Ahx3Leu3VS (UbiQ-018) was used at final concentration of 500 nM in sucrose buffer (50 mM Tris buffer pH 7.5, 5 mM magnesium chloride, 1 mM EDTA, 50 mM NaCl, 250 mM sucrose, 2 mM ATP, 1 mM DTT). Proteasome enriched fractions treated with […]
DMSO or test compounds, were incubated with the probe for 2h at RT. Samples were then denatured by addition of Laemmli sample buffer, heated to 95°C for 10 min and separated by electrophoresis on a 15% SDS-PAGE acrylamide gel. Following separation, gels were scanned in the fluorescein channel of a ChemiDoc reader (λ excitation/emission = 480/530 nm). Fluorescent proteins were excised and MALDI– TOF analysis carried out by the FingerPrints Proteomics service at the University of […]
10. Measuring Proteolytic activity of Leishmania tarentolae Proteasome […]
pre-prepared as a 10 mM stocks in 100 % DMSO and then diluted 1 in 3, over 11 points, prior to dispense of 100 nl of each dilution series into black, low volume, 384-well microplates. Proteasome was prepared as a 0.5 µg/mL working solution in assay buffer (50 mM HEPES (pH 7.5), 150 mM NaCl, 5 mM MgCl2, 5% glycerol, 1 mM CHAPS) and 5 µL was added using a Multidrop Micro (Thermo Fisher Scientific) to all wells containing compound dilutions on the test microplates. The microplates were then centrifuged for 1 min at 1000 rpm and incubated for 15 mins at 25 °C, prior to an assay initiating addition of 5 µl of fluorogenic substrate, which had been prepared as a 1 µM […]
The assay microplates were then centrifuged for 10 secs before using a Tecan M1000 Pro to monitor the increase of fluorescent intensity at 25 °C by excitation of the liberated Rhodamine110 at 485 nm and emission at 535 nm every 125 secs for 20 cycles. […]
calculate initial rates of reactions for all assay wells on the microplate by fitting to a linear regression model. The initial rates of reaction for all compound concentrations tested were normalised to the initial rates determined for 16 replicate control wells per microplate of both uninhibited reaction and no-proteasome background, and subsequently, IC50 values were determined by fitting the normalised data to the following four-parameter logistic model; y = a + (( b – a) / ( 1 + ( 10 ^ x / 10 ^ c ) ^ d ), where ‘a’ is the minimum, ‘b’ is […], ‘c’ is the IC50 and ‘d’ is […].
11. Cryo-EM of 20S Leishmania tarentolae proteasome a. Purification of 20S Leishmania tarentolae proteasome. […]

[12] = system: human proteasome catalytic subunits (THP-1 extracts); assay: Activity-based probe (UbiQ-018) labelling of THP-1 proteasome; type: binding; settings: human THP-1 extracts, 100 µM
[13] = system: L. donovani (LV9); assay: Mouse model of VL (in vivo efficacy in female Balb/C mice); set-up: species or system Leishmania donovani; settings: 30 mg/kg u.i.d. (10 days PO)
Experimental: Infected mice were dosed at 3, 10, or 25 mg/kg orally twice a day for 10 consecutive days. Two days after the termination of treatment, mice were euthanized, and the parasite burdens in their livers were determined.
Peripheral blood samples were obtained at 5, 15, 30 min, 1, 2, 4, 6 ,8 and 24 h after intravenous administration and 15, 30, 45 min,1, 2, 4, 6, 8 and 24 h after oral administration. Blood was 1/2 diluted with milliQ water and immediately frozen on dry ice until analysis. Quantification was performed by means of LC-MS/MS (API4000), with a lower limit of quantification of 1 ng/mL. […]
Data analysis and calculation of pharmacokinetic parameters was performed using Phoenix, WinNonLin Version 6.3. […]
For both intravenous and oral administration, the systemic exposures were determined by calculating the area under the blood concentration time curve (AUC) from the start of dosing to the last observed quantifiable concentration (AUC0-t) by using the linear up-log down trapezoidal rule. The slope of the terminal elimination phase was estimated by linear regression of the terminal data points (minimum 3 points) from a natural log concentration versus time plot of the data. The half-life (t1/2) of the terminal elimination phase was calculated as t1/2 = 0.693/λ.
7. In vivo efficacy in female Balb/C mice
To establish infection in mice, sodium stibogluconate-sensitive L. donovani (LV9, WHO designation: MHOM/ET/67/HU3) amastigotes were isolated from the spleen of a heavily infected donor hamster (Janvier, France)7. An inoculum containing 1.0 x 10^8 amastigotes/mL in Dulbecco’s modified eagles medium (high glucose) was prepared […]
and female BalbC mice (Harlan, UK) then infected intravenously via the tail vein with a 0.2 mL bolus (equivalent to ~2.0 x 10^7 amastigotes). Infection was left to establish for […]
daily orally as a suspension in 0.5% hydroxypropylmethylcellulose, 0.4% tween 80 and 0.5% benzyl alcohol. With twice daily regimens, the second daily dose was administered approximately 8 h following the first dose. Dose regimens evaluated were:
1. 50 mg/kg twice daily for 5 days
2. 25 mg/kg, 10 mg/kg and 3 mg/kg twice daily for 10 days
3. 25 mg/kg once daily for 10 days
Miltefosine, as the only oral treatment for visceral leishmaniasis, was used as a […]

[14] = system: L. donovani (LV9); set-up: method as in PMID 11353640; settings: similar mouse model, once daily; cited from earlier work
[15] = L. donovani amastigotes in differentiated THP-1 cells, read-out: Intramacrophage EC50

For O=C(Nc1cccc(-c2nc3ncccc3o2)c1)c1ccco1 [Compound 1], the EC50 [1] was 0.22 µM, the EC50 [2, 15] was 5.7 µM and the EC50 [3] was > 50 µM. The CLint [4] was 24 mL/min/g and the solubility [5] was 0.058 mg/mL (≈ 190 µM).

With O=C(Nc1cccc(-c2cn3cccnc3n2)c1)c1ccco1 [Compound 2] the EC50 [1] was 0.93 µM, the EC50 [2, 15] was 26 µM and the EC50 [3] was > 50 µM. The CLint [4] was 8.5 mL/min/g and the solubility [5] was ≥ 0.162 mg/mL.

For O=C(Nc1ccc(F)c(-c2cn3nc(N4CCOCC4)cnc3n2)c1)N1CCCC1 [Compound 7a], the EC50 ([2]; THP-1, read-out: Intramacrophage EC50) was 0.41 µM, the EC50 [3] was > 50 µM and the CLint [4] was 0.91 mL/min/g. For the same compound, the AMES [6] was “not mutagenic; also recorded: negative”, the solubility [7] was 0.024 mg/mL (≈ 58.3 µM) and the solubility [8] was 0.013 mg/mL (≈ 31.6 µM).

Work on CC(C)C[C@H](NC(=O)[C@H](Cc1ccccc1)NC(=O)c1cnccn1)B(O)O [bortezomib, reference compound] yielded an EC50 ([9]; RES I (compound 7-resistant clone)) of 0.028 ± 0.0014 µM, an EC50 ([9]; RES III (compound 7-resistant clone)) of 0.032 ± 0.0015 µM and an EC50 ([9]; WT promastigotes) of 0.031 ± 0.0015 µM. For the same compound, the “inhibition of chymotrypsin-like activity, RES II vs WT lysates” value [10] was “equal potency”, the “UbiQ-018 labelling of proteasome subunits” value (“UbiQ-018 labelling” for short) ([11]; L. donovani WT extracts) was “prevents labeling of proteasome subunits in all extracts” and the “UbiQ-018 labelling” value ([11]; L. donovani-resistant RES II extracts) was “prevents labeling of proteasome subunits in all extracts”. For the same compound, the “UbiQ-018 labelling” value [12] was “prevents labeling of proteasome subunits in all extracts”.

In the case of CCCCCCCCCCCCCCCCOP(=O)([O-])OCC[N+](C)(C)C [miltefosine, reference compound], the “Reduction in parasite burden (compared to the vehicle control group)” value [13] is given as 99.9% and the ED90 [14] is given as 27 mg/kg.
